Test results published in patent publication US11597737B2, “Small molecule inhibitors selective for polo-like kinase proteins” (UNIVERSITY OF SOUTH CAROLINA, priority 2016, dated 2023).
Where two headings read alike, the source gives them in different places. One block for each compound: values may come before it.

Tests used:
PC3 cells [1] = test: Cell cycle analysis and BrdU pulse labeling in PC3 cells, FIG. 9-11; format: cell-based
Protocol: (§1) Analysis of Cell Cycle Progression by FACS
(§2) Serum-Starved Synchronization
(§3) Cells were synchronized in G1 by serum starvation. Briefly, exponentially growing cells were plated overnight. Media (DMEM, 10% FBS, 1% Pen. Strep.) was then removed and replaced with media containing no FBS. Cells were starved for 72 hours then treated for 24 hours with inhibitor. Following treatment, cells were harvested and processed for endpoint experimental analysis.
(§4) Ethanol fixative was removed by centrifugation and the cells were washed with 1 mL ice-cold PBS/1% BSA. Cells were denatured by resuspending in 0.2 mg/mL pepsin in 2N HCl and incubated in 37° C. water bath for 15 minutes. Hydrolysis was then terminated by adding 1 M Invitrogen™ Novex® Tris-Glycine. Cells were then washed with PBS/1% BSA then the primary anti-BrdU antibody (1:100 dilution in TBFP; 0.5% Tween-20, 1% BSA, 1% FBS, PBS) was added and cells were incubated for 25 minutes in the dark, at room temperature. […] Cells were washed once more with PBS/1% BSA and re-suspended in DAPI for 30 minutes before being analyzed by flow cytometry.
The PLK1 PBD-inhibitors were analyzed further by cell cycle analysis in PC3 cells (FIG. 9). […] To quantify the percentage of cells actively proliferating (synthesizing their DNA) or arrested Bromodeoxyuridine (BrdU) pulse labeling was carried out and analyzed by flow cytometry.

PLK1 PBD (367-603) = target: T1, PLK1 PBD (367-603) (Homo sapiens, UniProt P53350); test: Fluorescence polarization assay, PLK1 PBD; format: binding
T1 construct: PLK1 PBD (367-603); purchased BPS Biosciences Inc. (San Diego, Calif.)
T1 sequence (P53350 367-603): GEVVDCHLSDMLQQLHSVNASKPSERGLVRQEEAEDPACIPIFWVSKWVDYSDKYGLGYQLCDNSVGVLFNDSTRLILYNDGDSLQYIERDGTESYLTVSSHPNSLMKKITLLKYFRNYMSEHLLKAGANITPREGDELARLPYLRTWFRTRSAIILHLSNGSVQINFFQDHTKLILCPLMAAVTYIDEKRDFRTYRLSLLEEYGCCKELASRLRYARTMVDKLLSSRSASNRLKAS
Protocol: (§5) Fluorescence Polarization Assay
(§6) Materials were dissolved in DMSO (10 mM) and diluted from 10 nM to 600 μM (maximum of 6% DMSO tolerance in the assay). […] Incubation was carried out at room temperature for 45 minutes. Fluorescence was measured using a DTX 880 plate reader and Multimode Analysis software (Beckman Coulter, Brea, Calif.). […] Each data point was performed in triplicate for every experiment, and experiments were performed at least three times. An IC50 value for each compound was calculated from linear regression analysis of the plots.

[2] = system: KRAS mutant lung cancer (A-549) cells; test: Cell viability assay (MTT), A-549; format: cell-based; conditions: 72 hours
Protocol: A-549 lung cancer cells were maintained in Hams F-12 1× with glutamine (Corning® Cellgro, Manassas, Va.), and supplemented with 10% FBS or Corning® Nu-Serum™ (BD™ Biosciences, Franklin Lakes, N.J.) and 1% penicillin/streptomycin (Invitrogen™) in a humidified incubator and 5% C02 at 37° C.
(§7) Exponentially growing cells were plated in 96-well dishes. Dose response curves were used to treat cells for 72 hours with inhibitors. Following the three-day treatment, cell viability was measured using the MTT (3-(4,5-dimethylthiazol-2-yl)-2,5-diphenyltetrazolium bromide) colorimetric assay. Cells were incubated for 3 hours with MTT allowing viable cells to metabolize the tetrazolium dye to a purple colored solution. Absorbance measurements (595 nm) were quantified using a DTX 880 plate reader and IC50 values were generated for FLIPs.

[3] = system: HeLa cervical cancer cells; test: Cell viability assay (MTT), HeLa; format: cell-based; conditions: read-out: HeLa
Protocol: HeLa cervical cancer cells were obtained from ATCC (Manassas, Va.). […] Cells were maintained in DMEM (Invitrogen™, Carlsebad, Calif.) supplemented with 10% FBS or Corning© Nu-Serum™ (BD™ Biosciences, Franklin Lakes, N.J.) and 1% penicillin/streptomycin (Invitrogen™) in a humidified incubator and 5% CO2 at 37° C.
as §7, with “solution.” for “solution. Absorbance measurements (595 nm) were quantified using a DTX 880 plate reader and IC50 values were generated for FLIPs.”

[4] = system: HCT-116 (p53−/−) colon cancer cells; test: Cell viability assay (MTT), HCT116 p53-/-; format: cell-based; conditions: 72 hours
Protocol: HCT-116 (p53+/+ and −/−) colon cancer cells were maintained DMEM (Invitrogen™, Carlsebad, Calif.) supplemented with 10% FBS or Nu-serum (BD™ Biosciences, Franklin Lakes, N.J.) and 1% penicillin/streptomycin (Invitrogen™) in a humidified incubator and 5% C02 at 37° C.
as §7

[5] = system: PTEN deficient prostate cancer (PC3) cells; test: Cell viability assay (MTT), PC3; format: cell-based; conditions: read-out: PCC-3
Protocol: PC3 prostate cancer cells were maintained in DMEM (Invitrogen™, Carlsebad, Calif.) supplemented with 10% FBS or Corning® Nu-Serum™ (BD™ Biosciences, Franklin Lakes, N.J.) and 1% penicillin/streptomycin (Invitrogen™) in a humidified incubator and 5% C02 at 37° C.
as §7, with “solution.” for “solution. Absorbance measurements (595 nm) were quantified using a DTX 880 plate reader and IC50 values were generated for FLIPs.”

PLK3 PBD (335-646) = target: T2, PLK3 PBD (335-646) (Homo sapiens, UniProt Q9H4B4); test: Fluorescence polarization assay, PLK3 PBD; conditions: PLK3 PBD binding
T2 construct: PLK3 PBD (335-646); purchased BPS Biosciences Inc. (San Diego, Calif.)
T2 sequence (Q9H4B4 335-646): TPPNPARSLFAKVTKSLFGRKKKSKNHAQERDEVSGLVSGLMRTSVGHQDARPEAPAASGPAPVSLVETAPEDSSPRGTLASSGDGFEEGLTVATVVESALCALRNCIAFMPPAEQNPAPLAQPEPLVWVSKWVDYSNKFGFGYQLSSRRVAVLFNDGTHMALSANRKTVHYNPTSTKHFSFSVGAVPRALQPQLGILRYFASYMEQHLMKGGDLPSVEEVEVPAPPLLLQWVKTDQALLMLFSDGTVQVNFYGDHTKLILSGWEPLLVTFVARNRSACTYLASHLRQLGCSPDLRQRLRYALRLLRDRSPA
Protocol: as §5, §6

[6] = Cytotoxicity, cell viability and apoptosis data, FIG. 12; format: cell-based; conditions: average from various assays
From the text: For instance, FIG. 12 presents cytotoxicity, cell viability, and apoptosis data for cells treated with inhibitor SCCP ID No: 6037. […] The data of FIG. 13 relates to SCCP ID No: 5914 and the data of FIG. 14 relates to SCCP ID No: 5915.

PC3 cells [7] = test: Cell cycle analysis after release (DAPI/BrdU FACS), FIG. 3; format: cell-based
Protocol: PLK specificity can be useful in therapeutic applications, as well as in research-oriented application.
as §1, §2, §3, §4

[8] = Cell cycle analysis and caspase apoptosis assay; format: cell-based
From the text: Disclosed small molecule inhibitors can also encourage apoptosis.

[9] = PLK1 PBD binding, fluorescence polarization, read-out: PLK1 IC50
[10] = Table 1, fluorescence polarization, read-out: PLK1 PBD IC50

- IC50 (PLK1 PBD (367-603); [9]): 5.89 ± 1.25 µM
Compound: CCCCCCCCc1ccc(C(=O)Nc2ccc(OC)cc2C(=O)O)cc1 [SCCP ID No. 5935]
- cell cycle phenotype (in words) (PC3 cells [1]; 15 μM): G1 delay or arrest

- IC50 (PLK1 PBD (367-603); [9]): 30.6 ± 3.2 µM
Compound: CCCCCCCCc1ccc(C(=O)Nc2cc(F)cc(F)c2C(=O)O)cc1 [SCCP ID No. 5938]

- IC50 (PLK1 PBD (367-603); [9]): 6.05 ± 1.9 µM
Compound: CCCCCCCCc1ccc(C(=O)Nc2cccc([N+](=O)[O-])c2C(=O)O)cc1 [SCCP ID No. 5939]

- IC50 (PLK1 PBD (367-603); [9]): > 600 µM
- binding to the PLK1 PBD (in words) (PLK1 PBD (367-603); fluorescence polarization): No binding was observed
Compound: CCCCCCc1ccc(C(=O)Nc2ccccc2OP(=O)(O)O)cc1 [SCCP ID No. 5940]

- IC50 (PLK1 PBD (367-603); [9]): > 600 µM
- binding to the PLK1 PBD (in words) (PLK1 PBD (367-603); fluorescence polarization): No binding was observed
Compound: CCCCCCc1ccc(C(=O)Nc2ccccc2O)cc1 [SCCP ID No. 5943]

- IC50 [2]: 13.3 ± 0.8 µM
- IC50 ([3]; MTT, 72 hours): 20.1 ± 3.1 µM
- IC50 [4]: 24.9 ± 2 µM
- IC50 ([5]; MTT, 72 hours): 27.9 ± 2.6 µM
Compound: CCCCCCCCc1ccc(C(=O)Nc2cccc(C(F)(F)F)c2C(=O)O)cc1 [SCCP ID No. 5945]

- IC50 ([3]; MTT, 72 hours): 33.6 ± 2.6 µM
- IC50 ([5]; MTT, 72 hours): 34.2 ± 2.5 µM
Compound: CCCCCCCCc1ccc(C(=O)Nc2cccc(O)c2C(=O)O)cc1 [SCCP ID No. 5946]

- IC50 (PLK1 PBD (367-603); [9]): 9.57 ± 2.03 µM
Compound: CCCCCCCCc1ccc(CNc2ccccc2C(=O)O)cc1 [SCCP ID No. 5953]

- IC50 (PLK3 PBD (335-646)): 157 µM
- IC50 (PLK1 PBD (367-603); [9]): > 600 µM
- binding to the PLK1 PBD (in words) (PLK1 PBD (367-603); fluorescence polarization): undetectable
Compound: CCCCCCCCc1ccc(CNc2ccc(C)cc2C(=O)O)cc1 [SCCP ID No. 5961]

- IC50 (PLK1 PBD (367-603); [10]): > 200 µM
Compound: CCCCCCCCc1ccc(C(=O)NCCC(=O)O)cc1 [SCCP ID No. 5975]

- IC50 (PLK1 PBD (367-603); [10]): 343 to 450 µM
Compound: CCCCCCCCc1ccc(C(=O)NCC(C)C(=O)O)cc1 (stereo not drawn) [SCCP ID No. 5976]

Compound: CCCCCCCCCCCCc1ccc(C(=O)Nc2ccccc2C(=O)O)cc1 [SCCP ID No. 6037]
- cells replicating their DNA (BrdU labeling) (PC3 cells [1]; 5 μM): 75.7%
- BrdU+ (PC3 cells [1]; 15 μM): 1.9%
- cell cycle phenotype (in words) (PC3 cells [1]; 15 μM): G1 arrest
- cell cycle phenotype (in words) (PC3 cells [1]; both the lower (5 μM) and higher (15 μM) dose, FIG. 11): G1 accumulation
- PLK1 versus PLK3 specificity (in words) (PLK1 PBD (367-603); PBD binding): selectivity for PLK3
- IC50 (PLK1 PBD (367-603); [9]): 5.97 ± 0.38 µM
- cell viability [6]: 15.6 ± 3.4 µM
- cytotoxicity [6]: 14.8 ± 3.6 µM
- G2/M by DAPI (PC3 cells [7]; 5 μM): 7%
- BrdU+ (PC3 cells [7]; 5 μM, FIG. 3 2nd panel): 27%
- G1 by DAPI (PC3 cells [7]; 5 μM, FIG. 3 2nd panel): 77%
- S by DAPI (PC3 cells [7]; 5 μM, FIG. 3 2nd panel): 15%
- G2/M by DAPI (PC3 cells [7]; 20 μM, FIG. 3 3rd panel): 28%
- IC50 ([3]; Homo sapiens, HeLa, 72 h): 14 ± 3.5 µM
- levels of apoptosis (in words) [8]: high levels of apoptosis
- IC50 ([5]; Homo sapiens, PC-3, 72 h): 9.4 ± 0.8 µM
